Measured values taken from US10391080B2, “Ketorolac for the treatment of cancer” (Cipla Limited, priority 2016, dated 2019).
Like-named read-outs stand apart in the source and are kept apart here.

Tests used:
RXF 486L = experiment: In vitro 3D assay, clonogenic assay (colony formation in semi-solid medium); assay type: cell-based; conditions: Homo sapiens, 3D colony formation, continuous exposure 8 to 13 days
Experimental: (§1) Ketorolac was characterized for its ability to inhibit anchorage independent growth and ex vivo colony formation of tumor cells in semi-solid medium. The compound was tested against 10 human tumor xenograft-derived cell suspensions or tumor cell lines of renal cancer.
(§2) Cell lines were routinely passaged one or twice weekly. […] The percentage of viable cells was determined in a Neubauer-hemocytometer using trypan blue exclusion.
(§3) Tumor xenografts (patient-derived, as well as cell line-derived xenografts) were passaged as subcutaneous xenografts in NMRI nu/nu mice. At a tumor volume of 400-1000 mm^3 tumor-bearing mice were sacrificed and tumors were collected under sterile conditions without delay according to the relevant Oncotest SOPs and the relevant animal welfare guidelines published by the FELASA and the GV-SOLAS. […] The percentage of viable cells was determined in a Neubauer-hemocytometer using trypan blue exclusion. Aliquots of the cells were frozen down, and stored in liquid nitrogen. On each day of an experiment, a frozen aliquot of tumor cells was thawed and used for preparation of assay plates.
(§4) The clonogenic assay was carried out in a 96 well plate format using ultra low attachment plates. […] Every plate included six untreated control wells and drug-treated groups in duplicate at 9 concentrations. […] At the time of maximum colony formation, counts were performed with an automatic image analysis system (Celllnsight NXT, Thermo Scientific). 48 hours prior to evaluation, vital colonies were stained with a sterile aqueous solution of 2-(4-iodophenyl)-3-(4-nitrophenyl)-5-phenyltetrazolium chloride (1 mg/ml, 100 μl/well).

RXF 1183L = experiment: as above; assay type: cell-based; conditions: Homo sapiens, 3D colony formation, continuous exposure 8 to 13 days
Experimental: as §1, §2, §3, §4

RXF 393L = experiment: as above; assay type: cell-based; conditions: Homo sapiens, 3D colony formation, continuous exposure 8 to 13 days
Experimental: as §1, §2, §3, §4

ACHN = experiment: as above; assay type: cell-based; conditions: Homo sapiens, 3D colony formation, continuous exposure 8 to 13 days
Experimental: as §1, §2, §3, §4

RXF 1220L = experiment: as above; assay type: cell-based; conditions: Homo sapiens, 3D colony formation, continuous exposure 8 to 13 days
Experimental: as §1, §2, §3, §4

SN12C = experiment: as above; assay type: cell-based; conditions: Homo sapiens, 3D colony formation, continuous exposure 8 to 13 days
Experimental: as §1, §2, §3, §4

786-O = experiment: as above; assay type: cell-based; conditions: Homo sapiens, 786-0, 3D colony formation, continuous exposure 8 to 13 days
Experimental: as §1, §2, §3, §4

Caki-1 = experiment: as above; assay type: cell-based; conditions: Homo sapiens, Caki-1, 3D colony formation, continuous exposure 8 to 13 days
Experimental: as §1, §2, §3, §4

A-498 cells = experiment: as above; assay type: cell-based; conditions: Homo sapiens, A498, A-498, 3D colony formation, continuous exposure 8 to 13 days
Experimental: as §1, §2, §3, §4

RXF 1781L = experiment: as above; assay type: cell-based; conditions: Homo sapiens, 3D colony formation, continuous exposure 8 to 13 days
Experimental: as §1, §2, §3, §4

A498 cells = experiment: In vivo animal efficacy study, subcutaneous A498 tumor fragments; design: species or system female athymic nude mice
Experimental: 10 Healthy female athymic nude mice were recruited for the donor cell inoculation. Animals were subcutaneously injected at flank region with 10 million A498 cells suspended in 200 μl of media and matrigel. Animals were monitored for solid tumor growth. […] Tumors were fragmented in to ˜30 mg size. […] [table] The tumor sizes were measured weekly twice from the date of tumor appearance till the end of the experiment. Tumor size was measured by digital vernier caliper (MITUTOYO) by measuring length (L=longest axis) and width (W=shortest axis). Tumor Volume was calculated using the formula: […] Form the tumor volume data mean tumor volume and % tumor growth inhibition (% TGI) were calculated (SEM=standard error of mean).

[1] = test system: tumor cell lines of renal cancer; experiment: In vitro 3D combination study, clonogenic assay, both cell lines; assay type: cell-based; conditions: Homo sapiens, A498; compound alone, colony formation in soft agar, range over RXF 1183L and RXF A-498; read-out: Relative IC50, single agent
Experimental: The objective of this study was to assess anti-tumor efficacy of ketorolac in combination with sunitinib in a 5×5 matrix combination format against tumor cell lines of renal cancer using a clonogenic assay with image analysis as read-out.
The clonogenic assay was carried out in a 96 well plate format using ultra low attachment plates. For each test cells were prepared as described above, and assay plates were prepared as follows: each test well contained a layer of semi-solid medium with tumor cells (50 μl), and a second layer of medium supernatant with or without test compounds (100 μl). The cell layer consisted of 3×10^3 to 1×10^4 tumor cells per well, which were seeded in 50 μl/well cell culture medium (IMDM, supplemented with 20% (v/v) fetal calf serum, 0.01% (w/v) gentamicin, and 0.4% (w/v) agar). The soft agar layer was immediately covered with 90 μl of the same culture medium without agar. After 24 h the test compounds were added after serial dilution in IMDM and transfer in cell culture medium, and left on the cells for the duration of the experiment (continuous exposure, 100 μL total drug overlay). Every plate included six untreated control wells and drug-treated groups in a layout as shown above. […] At the time of maximum colony formation, counts were performed with an automatic image analysis system (Celllnsight NXT, Thermo Scientific). […]

[2] = test system: 10 human tumor xenograft-derived cell suspensions or tumor cell lines of renal cancer; experiment: In vitro 3D assay, clonogenic assay, whole panel; assay type: cell-based; conditions: geometric mean of 10 renal tumor models, 3D colony formation
Experimental: as §1, §2, §3, §4

[3] = Ketorolac 5 mg/kg p.o. q.d. × 21 (G3), day 1
[4] = Ketorolac 5 mg/kg p.o. q.d. × 21 (G3), day 6
[5] = Ketorolac 5 mg/kg p.o. q.d. × 21 (G3), day 9
[6] = Ketorolac 5 mg/kg p.o. q.d. × 21 (G3), day 13
[7] = Ketorolac 5 mg/kg p.o. q.d. × 21 (G3), day 16
[8] = Ketorolac 10 mg/kg p.o. q.d. × 21 (G4), day 1
[9] = Ketorolac 10 mg/kg p.o. q.d. × 21 (G4), day 6
[10] = Ketorolac 10 mg/kg p.o. q.d. × 21 (G4), day 9
[11] = Ketorolac 10 mg/kg p.o. q.d. × 21 (G4), day 13
[12] = Ketorolac 10 mg/kg p.o. q.d. × 21 (G4), day 16

O=C(c1ccccc1)c1ccc2n1CCC2C(=O)O (racemic) [Ketorolac, (±)-5-benzoyl-2,3-dihydro-1H-pyrrolizine-1-carboxylic acid]
IC50 (RXF 486L; read-out: Absolute IC50): 2680 µM | IC50 (RXF 486L; read-out: Relative IC50): 2610 µM | IC50 (RXF 1183L; read-out: Absolute IC50): 1550 µM | IC50 (RXF 1183L; read-out: Relative IC50): 1490 µM | IC50 (RXF 393L; read-out: Absolute IC50): 2830 µM | IC50 (RXF 393L; read-out: Relative IC50): 2730 µM | IC50 (ACHN; read-out: Absolute IC50): 3140 µM | IC50 (ACHN; read-out: Relative IC50): 3250 µM | IC50 (RXF 1220L; read-out: Absolute IC50): 1770 µM | IC50 (RXF 1220L; read-out: Relative IC50): 1750 µM | IC50 (SN12C; read-out: Absolute IC50): 2590 µM | IC50 (SN12C; read-out: Relative IC50): 2640 µM | IC50 (786-O; read-out: Absolute IC50): 3840 µM | IC50 (786-O; read-out: Relative IC50): 4200 µM | IC50 (Caki-1; read-out: Absolute IC50): 3680 µM | IC50 (Caki-1; read-out: Relative IC50): 3750 µM | IC50 (A-498 cells; read-out: Absolute IC50): 279 µM | IC50 (A-498 cells; read-out: Relative IC50): 279 µM | IC50 (RXF 1781L; read-out: Absolute IC50): 1900 µM | IC50 (RXF 1781L; read-out: Relative IC50): 2040 µM | Mean Tumor Volume (A498 cells; [3]): 145.65 mm^3 | Tumor Growth Inhibition (% TGI) (A498 cells; [3]): 1.29% | Mean Tumor Volume (A498 cells; [4]): 174.13 mm^3 | Tumor Growth Inhibition (% TGI) (A498 cells; [4]): 47.54% | Mean Tumor Volume (A498 cells; [5]): 297.42 mm^3 | Tumor Growth Inhibition (% TGI) (A498 cells; [5]): 35.87% | Mean Tumor Volume (A498 cells; [6]): 460.01 mm^3 | Tumor Growth Inhibition (% TGI) (A498 cells; [6]): 25.45% | Mean Tumor Volume (A498 cells; [7]): 559.69 mm^3 | Tumor Growth Inhibition (% TGI) (A498 cells; [7]): 41.77% | Mean Tumor Volume (A498 cells; Ketorolac 5 mg/kg p.o. q.d. × 21 (G3), day 20): 626.62 mm^3 | Mean Tumor Volume (A498 cells; [8]): 145.79 mm^3 | Tumor Growth Inhibition (% TGI) (A498 cells; [8]): 1.20% | Mean Tumor Volume (A498 cells; [9]): 168.10 mm^3 | Tumor Growth Inhibition (% TGI) (A498 cells; [9]): 49.36% | Mean Tumor Volume (A498 cells; [10]): 223.78 mm^3 | Tumor Growth Inhibition (% TGI) (A498 cells; [10]): 51.75% | Mean Tumor Volume (A498 cells; [11]): 215.58 mm^3 | Tumor Growth Inhibition (% TGI) (A498 cells; [11]): 65.06% | Mean Tumor Volume (A498 cells; [12]): 300.44 mm^3 | Tumor Growth Inhibition (% TGI) (A498 cells; [12]): 68.75% | Mean Tumor Volume (A498 cells; Ketorolac 10 mg/kg p.o. q.d. × 21 (G4), day 20): 336.27 mm^3 | IC50 [1]: 589 to 1760 µM | IC50 ([2]; Homo sapiens, read-out: Absolute IC50, geometric mean): 2040 µM | IC50 ([2]; Homo sapiens, read-out: Relative IC50, geometric mean (mean relative IC50)): 2040 µM | IC50 ([2]; read-out: Relative IC50, geometric mean (mean relative IC50)): 2080 µM
